Experiments:
[1] = biological target: T1, Dual specificity protein phosphatase 22 (Homo sapiens, UniProt Q9NRW4); test: Inhibition of VHX
T1 sequence (Q9NRW4 whole entry): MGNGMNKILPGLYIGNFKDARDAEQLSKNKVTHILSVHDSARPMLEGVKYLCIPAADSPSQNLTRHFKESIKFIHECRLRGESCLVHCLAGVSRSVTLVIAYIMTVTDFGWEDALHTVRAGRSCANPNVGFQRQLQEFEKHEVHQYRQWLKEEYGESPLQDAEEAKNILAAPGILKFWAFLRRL

[2] = biological target: T2, Receptor-type tyrosine-protein phosphatase C (Homo sapiens, UniProt P08575); test: Inhibition of CD45
T2 sequence (P08575 whole entry): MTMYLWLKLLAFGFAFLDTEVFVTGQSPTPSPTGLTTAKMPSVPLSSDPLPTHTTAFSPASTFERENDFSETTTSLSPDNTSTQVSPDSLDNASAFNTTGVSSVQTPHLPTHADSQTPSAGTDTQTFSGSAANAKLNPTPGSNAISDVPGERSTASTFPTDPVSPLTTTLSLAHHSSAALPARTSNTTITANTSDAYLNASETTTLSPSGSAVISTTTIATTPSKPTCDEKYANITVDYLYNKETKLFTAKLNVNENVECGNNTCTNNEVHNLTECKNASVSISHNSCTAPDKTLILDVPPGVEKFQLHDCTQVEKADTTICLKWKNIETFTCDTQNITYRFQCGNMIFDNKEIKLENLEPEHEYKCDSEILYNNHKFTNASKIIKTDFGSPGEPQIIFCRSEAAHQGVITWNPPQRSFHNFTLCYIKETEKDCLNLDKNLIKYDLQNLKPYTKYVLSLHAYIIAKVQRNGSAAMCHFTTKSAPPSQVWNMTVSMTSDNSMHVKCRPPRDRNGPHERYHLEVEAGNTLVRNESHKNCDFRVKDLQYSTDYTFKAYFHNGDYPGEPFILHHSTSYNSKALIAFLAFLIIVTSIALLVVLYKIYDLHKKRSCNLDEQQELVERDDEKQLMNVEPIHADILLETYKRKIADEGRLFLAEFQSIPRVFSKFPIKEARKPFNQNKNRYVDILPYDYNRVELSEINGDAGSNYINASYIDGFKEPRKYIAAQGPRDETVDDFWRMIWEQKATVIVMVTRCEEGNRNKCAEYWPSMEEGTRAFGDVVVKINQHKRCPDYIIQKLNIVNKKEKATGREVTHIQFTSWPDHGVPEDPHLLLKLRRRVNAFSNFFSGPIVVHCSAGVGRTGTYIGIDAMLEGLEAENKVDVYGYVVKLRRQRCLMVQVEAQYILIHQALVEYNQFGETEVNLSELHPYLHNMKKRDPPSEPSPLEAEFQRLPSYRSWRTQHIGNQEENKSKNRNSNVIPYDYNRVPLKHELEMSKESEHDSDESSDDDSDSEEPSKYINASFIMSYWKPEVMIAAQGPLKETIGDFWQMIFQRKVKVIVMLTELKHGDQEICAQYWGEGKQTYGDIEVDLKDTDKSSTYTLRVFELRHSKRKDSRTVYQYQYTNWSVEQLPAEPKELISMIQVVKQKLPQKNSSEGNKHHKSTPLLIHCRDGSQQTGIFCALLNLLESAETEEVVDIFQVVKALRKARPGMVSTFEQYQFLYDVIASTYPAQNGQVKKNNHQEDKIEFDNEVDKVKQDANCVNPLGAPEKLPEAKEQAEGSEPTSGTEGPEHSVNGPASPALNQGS

Cc1cc(S(=O)(=O)O)c(S(=O)(=O)O)cc1N1N=C(C(=O)O)CC1=O was tested, and the IC50 [1] was > 100 µM and the IC50 [2] was > 100 µM.

From ChEMBL document CHEMBL1800013, “Small molecule inhibitors of SHP2 tyrosine phosphatase discovered by virtual screening” (Bioorg Med Chem Lett, 2011)
